Experiments:
Type in all cases: cell-based, human
IL-2 mRNA = assay: PHA-induced IL-2 mRNA expression in heparinized whole blood ex vivo; settings: supplement 30 min, concentrations per footnote
Experimental: (§1) In this embodiment, phytohemagglutinin-induced gene expression of interleukin-2 (IL-2), interleukin-4 (IL-4), and tumor necrosis factor-α (TNF-α) were quantitated in the following manner. Fifty μL of heparinized whole blood was incubated with various dietary supplements for a period of 30 minutes. The following supplements were employed: vitamins A, C, and D, epigallocatechin gallate (from green tea), genistein (from soy), and curcumin (from the spice turmeric). Vitamin A is known to stimulate the immune system. […] Vitamin D appears to have protective effects against certain cancers. Epigallocatechin gallate is a powerful antioxidant, appears to reduce the multidrug resistance found in cancer cells, and preferentially induces apoptosis in neoplastic cells. Genistein has been found in some studies to have anticarcinogenic activity; possible mechanisms of action include upregulation of apoptosis, inhibition of angiogenesis, inhibition of DNA topoisomerase II and inhibition of protein tyrosine kinases. Curcumin has proapoptotic effects in neoplastic cells and interferes with the activity of the transcription factor NF-κB, which is often highly overexpressed in such cells.
(§2) After incubation with the dietary supplement, 100 μg/mL phytohemagglutinin (PHA) was added and incubation was continued for an additional 2 hours at 37° C. The concentration of each dietary supplement (see Table I, note) was slightly higher than reported blood levels. Then mRNA was purified, cDNA was synthesized, and the levels of IL-2, IL-4, and TNF-α were quantitated by TaqMan real time polymerase chain reaction (PCR) (see Holland, et al., “Detection of specific polymerase chain reaction product by utilizing the 5′ to 3′ exonuclease activity of Thermus aquaticus DNA polymerase,” Proc Natl Acad Sci USA 1991; 88: 7276-80), as described below.
(§3) The mRNA and cDNA were prepared from the whole blood that was exposed to the dietary components, as well as the whole blood which remained unexposed. In brief, home-made 96-well filterplates were placed over collection plates, and 150 μl 5 mM Tris, pH 7.4, was applied. Following centrifugation at 120×g for 1 min at 4° C., 50 μl of blood samples were applied to each well and immediately centrifuged at 120×g for 2 min at 4° C., followed by washing of each well with 300 μl PBS once with centrifugation at 2000×g for 5 min at 4° C. Then, 60 μl stock lysis buffer, containing for example 0.5% N-Lauroylsarcosine, 4×SSC, 10 mM Tris HCl, pH 7.4, 1 mM EDTA, 0.1% IGEPAL CA-630, and 1.791 M guanidine thiocyanate, supplemented with 1% 2-mercaptoethanol (Bio Rad, Hercules, Calif., USA), 0.5 mg/ml proteinase K (Pierce, Rockford, Ill., USA), 0.1 mg/ml salmon sperm DNA (5 Prime Eppendorf/Brinkmann, Westbury, N.Y., USA), 0.1 mg/ml E. coli tRNA (Sigma), a cocktail of 10 mM each of the specific reverse primers shown in Table 2, and standard RNA34 oligonucleotides, were applied to the filterplates, followed by incubation at 37° C. for 10 min. The filterplates were then placed over oligo(dT)-immobilized microplates (GenePlate, RNAture), and centrifuged at 2000×g for 5 min at 4° C. Following overnight storage at 4° C., the microplates were washed with 100 μl plain lysis buffer 3 times, followed by 150 μl of wash buffer (0.5 M NaCl, 10 mM Tris, pH 7.4, 1 mM EDTA) 3 times at 4° C. The cDNA was directly synthesized in each well by adding 30 μl of buffer containing 1×RT-buffer, 1.25 mM each of dNTP, 4 units rRNasin, and 80 units of MMLV reverse transcriptase (Promega) (without primers), and incubation at 37° C. for 2 hours. The specific primer-primed cDNA existed in solution, and oligo(dT)-primed cDNA stayed immobilized in the microplate. […]

IL-4 mRNA = assay: PHA-induced IL-4 mRNA expression in heparinized whole blood ex vivo; settings: for ΔΔCt (mean ± standard deviation, n = 3), IL-4 mRNA: supplement 30 min, then 100 μg/mL PHA 2 h, concentrations per footnote
Experimental: as §1, §2, §3

TNF-α mRNA = assay: PHA-induced TNF-α mRNA expression in heparinized whole blood ex vivo; settings: supplement 30 min, then 100 μg/mL PHA 2 h, concentrations per footnote
Experimental: as §1, §2, §3

CC1=C(/C=C/C(C)=C/C=C/C(C)=C/CO)C(C)(C)CCC1 [VA, vitamin A]
ΔΔCt (mean ± standard deviation, n = 3), IL-2 mRNA (IL-2 mRNA; Subject 1, then 100 μg/mL PHA 2 h 37° C., negative = increased expression): −0.98 ± 0.04
ΔΔCt (mean ± standard deviation, n = 3), IL-2 mRNA (IL-2 mRNA; Subject 2, then 100 μg/mL PHA 2 h): −1.61 ± 0.32
ΔΔCt (mean ± standard deviation, n = 3), IL-2 mRNA (IL-2 mRNA; Subject 3, then 100 μg/mL PHA 2 h): 0.49 ± 0.33
ΔΔCt (mean ± standard deviation, n = 3), IL-2 mRNA (IL-2 mRNA; Subject 4, then 100 μg/mL PHA 2 h): −0.29 ± 0.21
ΔΔCt (mean ± standard deviation, n = 3), IL-2 mRNA (IL-2 mRNA; Subject 5, then 100 μg/mL PHA 2 h): −1.16 ± 0.02
ΔΔCt (mean ± standard deviation, n = 3), IL-2 mRNA (IL-2 mRNA; Subject 6, then 100 μg/mL PHA 2 h): −0.26 ± 0.20
ΔΔCt (mean ± standard deviation, n = 3), IL-2 mRNA (IL-2 mRNA; Subject 7, then 100 μg/mL PHA 2 h): −0.66 ± 0.35
ΔΔCt (mean ± standard deviation, n = 3), IL-4 mRNA (IL-4 mRNA; Subject 1): −2.14 ± 0.08
ΔΔCt (mean ± standard deviation, n = 3), IL-4 mRNA (IL-4 mRNA; Subject 2): −1.56 ± 0.34
ΔΔCt (mean ± standard deviation, n = 3), IL-4 mRNA (IL-4 mRNA; Subject 3): −0.15 ± 0.40
ΔΔCt (mean ± standard deviation, n = 3), IL-4 mRNA (IL-4 mRNA; Subject 4): −0.98 ± 0.41
ΔΔCt (mean ± standard deviation, n = 3), IL-4 mRNA (IL-4 mRNA; Subject 5): −1.24 ± 0.13
ΔΔCt (mean ± standard deviation, n = 3), IL-4 mRNA (IL-4 mRNA; Subject 6): −0.65 ± 0.09
ΔΔCt (mean ± standard deviation, n = 3), IL-4 mRNA (IL-4 mRNA; Subject 7): −1.15 ± 0.39
effect on PHA-induced IL-4 expression, in words (IL-4 mRNA; summary over 7 subjects of Table I): enhanced IL-4 expression, with 1-3 exceptions
ΔΔCt (mean ± standard deviation, n = 3), TNFα mRNA (TNF-α mRNA; Subject 1): −1.56 ± 0.11
ΔΔCt (mean ± standard deviation, n = 3), TNFα mRNA (TNF-α mRNA; Subject 2): −0.57 ± 0.94
ΔΔCt (mean ± standard deviation, n = 3), TNFα mRNA (TNF-α mRNA; Subject 3): 0.51 ± 0.03
ΔΔCt (mean ± standard deviation, n = 3), TNFα mRNA (TNF-α mRNA; Subject 4): −0.08 ± 0.29
ΔΔCt (mean ± standard deviation, n = 3), TNFα mRNA (TNF-α mRNA; Subject 5): −0.76 ± 0.34
ΔΔCt (mean ± standard deviation, n = 3), TNFα mRNA (TNF-α mRNA; Subject 6): −0.50 ± 0.10
ΔΔCt (mean ± standard deviation, n = 3), TNFα mRNA (TNF-α mRNA; Subject 7): −1.11 ± 0.24
